Experimental data taken from patent US20250154169A1, “COMPOUNDS AND METHODS FOR MODULATING SPLICING” (REMIX THERAPEUTICS INC., priority 2021, published 2025).
pIC50: −log10 of the molar value.

Key:
[1] = test system: HTT mRNA; assay: Splicing RT-qPCR assay, HTT canonical (CJ) and alternative (AJ) junction mRNA; assay type: cell-based, human; details: Homo sapiens, A673 or K562 cells, 24 hours compound treatment; for pIC50: 24 h, read-out: HTT CJ (IC50, decrease in canonical junction mRNA); for AC50: read-out: HTT AJ (AC50, increase in alternative junction mRNA)
Protocol: (§1) Compounds described herein were used to modulate RNA transcript abundance in cells. The expression of a target mRNA was measured by detecting the formation of an exon-exon junction in the canonical transcript (CJ). A compound mediated exon-inclusion event was detected by observing an increase in formation of a new junction with an alternative exon (AJ). Real-time qPCR assays were used to detect these splicing switches and interrogate the potency of various compounds towards different target genes. A high-throughput real time quantitative PCR (RT-qPCR) assay was developed to measure these two isoforms of the mRNA (CJ and AJ) for exemplary genes, such as HTT, SMN2, and MYB, together with a control housekeeping gene, GAPDH or GUSB or PPIA, used for normalization. Briefly, the A673 or K562 cell line was treated with various compounds described herein (e.g., compounds of Formula (I)). After treatment, the levels of the HTT, MYB, or SMN2 mRNA targets were determined from each sample of cell lysate by cDNA synthesis followed by qPCR.
(§2) • Cells-to-CT 1-step kit: ThermoFisher A25602, Cells-to-CT lysis reagent: ThermoFisher 4391851C, TaqMan™ Fast Virus 1-Step Master Mix: ThermoFisher 4444436 • GAPDH: VIC-PL, ThermoFisher 4326317E (Assay: Hs99999905_m1)—used for K562/suspension cell lines • GUSB: VIC-PL, ThermoFisher 4326320E (Assay: Hs99999908_m1)—used for K562/suspension cell lines • PPIA: VIC-PL, ThermoFisher 4326316E (Assay: Hs99999904_m1)—used for A673/adherent cell lines
(§3) The A673 cell line was cultured in DMEM with 10% FBS. Cells were diluted with full growth media and plated in a 96-well plate (15,000 cells in 100 ul media per well). The plate was incubated at 37° C. with 5% CO2 for 24 hours to allow cells to adhere. An 11-point 3-fold serial dilution of the compounds was made in DMSO then diluted in media in an intermediate plate. Compounds were transferred from the intermediate plate to the cell plate with the top dose at a final concentration of 10 uM in the well. Final DMSO concentration was kept at or below 0.25%. The cell plate was returned to the incubator at 37° C. with 5% CO2 for an additional 24 hours.
(§4) The K562 cell line was cultured in IMDM with 10% FBS. For K562, cells were diluted with full growth media and plated in either a 96-well plate (50,000 cells in 50 uL media per well) or a 384-well plate (8,000-40,000 cells in 45 uL media per well). An 11-point 3-fold serial dilution of the compounds were made in DMSO then diluted in media in an intermediate plate. Compound was transferred from the intermediate plate to the cell plate with the top dose at a final concentration of 10 uM in the well. Final DMSO concentration was kept at or below 0.25%. Final volume was 100 uL for 96-well plate and 50 uL for 384-well plate. The cell plate was then placed in an incubator at 37° C. with 5% CO2 for 24 hours.
(§5) The cells were then gently washed with 50 uL-100 uL cold PBS before proceeding to addition of lysis buffer. 30 uL-50 uL of room temperature lysis buffer with DNAse I (and optionally RNAsin) was added to each well. Cells were shaken/mixed thoroughly at room temperature for 5-10 minutes for lysis to take place and then 3 uL-5 uL of room temperature stop solution was added and wells were shaken/mixed again. After 2-5 minutes, the cell lysate plate was transferred to ice for RT-qPCR reaction setup. The lysates could also be frozen at −80° C. for later use.
(§6) In some cases, a direct lysis buffer was used. An appropriate volume of 3× lysis buffer (10 mM Tris, 150 mM NaCl, 1.5%-2.5% Igepal and 0.1-1 U/uL RNAsin, pH 7.4) was directly added to either K562 or A673 cells in media and mixed by pipetting 3 times. The plates were then incubated at room temperature with shaking/rocking for 20-50 minutes to allow for lysis to take place. After this time, the cell lysate plate was transferred to ice to set up for the RT-qPCR reactions. The lysates could also be frozen at −80° C. for later use. […]

[2] = test system: MYB mRNA; assay: Splicing RT-qPCR assay, MYB canonical (CJ) and alternative (AJ) junction mRNA; assay type: cell-based, human; details: Homo sapiens, 24 h, A673 or K562 cells, 24 hours compound treatment, RT-qPCR; for AC50: read-out: MYB AJ (AC50, increase in alternative junction mRNA); for pIC50: read-out: MYB CJ (IC50, decrease in canonical junction mRNA)
Protocol: as §1, §2, §3, §4, §5, §6

C=Cn1cc2c(N3CCC(NC)CC3)ccc(C(=O)Nc3cc(F)c4nc(C)cn4c3)c2n1 [Compound 502, 2-ethenyl-N-{8-fluoro-2-methylimidazo[1,2-a]pyridin-6-yl}-4-[4-(methylamino)piperidin-1-yl]indazole-7-carboxamide]
pIC50 [1]: > 7.00 | AC50 [1]: 100 to 1000 nM | AC50 [2]: < 100 nM | pIC50 [2]: > 7.00

C=Cn1cc2c(N3CCC(NCC)CC3)ccc(C(=O)Nc3cc(F)c4nc(C)cn4c3)c2n1 [Compound 503, 2-ethenyl-4-[4-(ethylamino)piperidin-1-yl]-N-{8-fluoro-2-methylimidazo[1,2-a]pyridin-6-yl}indazole-7-carboxamide]
pIC50 [1]: 6.00 to 7.00 | AC50 [1]: < 100 nM | AC50 [2]: < 100 nM | pIC50 [2]: > 7.00

COCc1nc2c(F)cc(NC(=O)c3ccc(N4CCNCC4)c4cn(C)nc34)cc2o1 [Compound 504, N-[4-fluoro-2-(methoxymethyl)-1,3-benzoxazol-6-yl]-2-methyl-4-(piperazin-1-yl) indazole-7-carboxamide]
pIC50 [1]: 5.00 to 6.00 | AC50 [1]: 1000 to 10000 nM | AC50 [2]: 1000 to 10000 nM | pIC50 [2]: 5.00 to 6.00

CCn1cc2c(OC3CCNCC3)ccc(C(=O)Nc3cc(F)c4nc(C)cn4c3)c2n1 [Compound 505, 2-ethyl-N-{8-fluoro-2-methylimidazo[1,2-a]pyridin-6-yl}-4-(piperidin-4-yloxy) indazole-7-carboxamide]
pIC50 [1]: 5.00 to 6.00 | AC50 [1]: 1000 to 10000 nM | AC50 [2]: 100 to 1000 nM | pIC50 [2]: 6.00 to 7.00

CCn1cc2c(C3=CCNCC3)ccc(C(=O)Nc3cc(F)c4nc(C)cn4c3)c2n1 [Compound 506, 2-ethyl-N-{8-fluoro-2-methylimidazo[1,2-a]pyridin-6-yl}-4-(1,2,3,6-tetrahydropyridin-4-yl) indazole-7-carboxamide]
pIC50 [1]: 6.00 to 7.00 | AC50 [1]: 1000 to 10000 nM | AC50 [2]: 100 to 1000 nM | pIC50 [2]: 6.00 to 7.00

Cc1cn2cc(NC(=O)c3ccc(N4CCNCC4)c4cn(C)nc34)nc(C#N)c2n1 [Compound 507, N-{8-cyano-2-methylimidazo[1,2-a]pyrazin-6-yl}-2-methyl-4-(piperazin-1-yl) indazole-7-carboxamide]
pIC50 [1]: 5.00 to 6.00 | AC50 [1]: 1000 to 10000 nM | AC50 [2]: 100 to 1000 nM | pIC50 [2]: 6.00 to 7.00

CCn1cc2c(N3CCC(CC)(N(C)C)CC3)ccc(C(=O)Nc3cc(F)c4nc(C)cn4c3)c2n1 [Compound 508, 4-[4-(dimethylamino)-4-ethylpiperidin-1-yl]-2-ethyl-N-{8-fluoro-2-methylimidazo[1,2-a]pyridin-6-yl}indazole-7-carboxamide]
pIC50 [1]: > 7.00 | AC50 [1]: 100 to 1000 nM | AC50 [2]: < 100 nM | pIC50 [2]: > 7.00

Cc1nc2c(F)cc(NC(=O)c3ccc(N4CCNCC4)c4cn(C)nc34)cc2[nH]1 [Compound 509]
pIC50 [1]: < 5.00 | AC50 [1]: > 10000 nM | AC50 [2]: 1000 to 10000 nM | pIC50 [2]: 5.00 to 6.00

COCCn1cc2c(N3CCNCC3)ccc(C(=O)Nc3cn4cc(C)nc4c(OC)n3)c2n1 [Compound 510, N-{8-methoxy-2-methylimidazo[1,2-a]pyrazin-6-yl}-2-(2-methoxyethyl)-4-(piperazin-1-yl) indazole-7-carboxamide]
pIC50 [1]: 5.00 to 6.00 | AC50 [1]: 1000 to 10000 nM | AC50 [2]: 100 to 1000 nM | pIC50 [2]: 6.00 to 7.00

Cc1nc2c(C)cc(NC(=O)c3ccc(N4CCNCC4)c4cn(C)nc34)nc2o1 [Compound 511, N-{2,7-dimethyl-[1,3]oxazolo[5,4-b]pyridin-5-yl}-2-methyl-4-(piperazin-1-yl) indazole-7-carboxamide]
pIC50 [1]: 6.00 to 7.00 | AC50 [1]: 100 to 1000 nM | AC50 [2]: 100 to 1000 nM | pIC50 [2]: 6.00 to 7.00

CCn1cc2c([C@@]34CCNCC3C4)ccc(C(=O)Nc3cc(F)c4nc(C)cn4c3)c2n1 (stereo partly shown) [Compound 513]
pIC50 [1]: 5.00 to 6.00 | AC50 [1]: > 10000 nM | AC50 [2]: 100 to 1000 nM | pIC50 [2]: 6.00 to 7.00

Cn1cc2c(N3CCNCC3)ccc(C(=O)Nc3cc(F)c4nc(CF)oc4c3)c2n1 [Compound 514, N-[4-fluoro-2-(fluoromethyl)-1,3-benzoxazol-6-yl]-2-methyl-4-(piperazin-1-yl) indazole-7-carboxamide]
pIC50 [1]: 6.00 to 7.00 | AC50 [1]: 100 to 1000 nM | AC50 [2]: < 100 nM | pIC50 [2]: > 7.00

CCn1cc2c(N3CCC(CC)(NC)CC3)ccc(C(=O)Nc3cc(F)c4nc(C)cn4c3)c2n1 [Compound 515, 2-ethyl-4-[4-ethyl-4-(methylamino)piperidin-1-yl]-N-{8-fluoro-2-methylimidazo[1,2-a]pyridin-6-yl}indazole-7-carboxamide]
pIC50 [1]: 6.00 to 7.00 | AC50 [1]: 100 to 1000 nM | AC50 [2]: < 100 nM | pIC50 [2]: > 7.00

CCN(CC)C1(C)CCN(c2ccc(C(=O)Nc3cc(F)c4nc(C)cn4c3)c3nn(CC)cc23)CC1 [Compound 517, 4-[4-(diethylamino)-4-methylpiperidin-1-yl]-2-ethyl-N-{8-fluoro-2-methylimidazo[1,2-a]pyridin-6-yl}indazole-7-carboxamide trifluoroacetic acid]
pIC50 [1]: 5.00 to 6.00 | AC50 [1]: > 10000 nM | AC50 [2]: 100 to 1000 nM | pIC50 [2]: 6.00 to 7.00

Cc1cn2cc(NC(=O)c3ccc(N4CCNCC4)c4cn(C)nc34)ccc2n1 [Compound 518, 2-methyl-N-{2-methylimidazo[1,2-a]pyridin-6-yl}-4-(piperazin-1-yl) indazole-7-carboxamide]
pIC50 [1]: 5.00 to 6.00 | AC50 [1]: 1000 to 10000 nM | AC50 [2]: < 100 nM | pIC50 [2]: 6.00 to 7.00

CCN[C@@H]1CCN(c2ccc(C(=O)Nc3cc(F)c4nc(C)cn4c3)c3nn(C)cc23)C1 [Compound 520, 4-[(3R)-3-(ethylamino)pyrrolidin-1-yl]-N-{8-fluoro-2-methylimidazo[1,2-a]pyridin-6-yl}-2-methylindazole-7-carboxamide]
pIC50 [1]: 5.00 to 6.00 | AC50 [1]: 1000 to 10000 nM | AC50 [2]: < 100 nM | pIC50 [2]: > 7.00

Cc1cn2cc(NC(=O)c3ccc(N4CC[C@@H](NCC5CC5)C4)c4cn(C)nc34)cc(F)c2n1 [Compound 522, 4-[(3R)-3-[(cyclopropylmethyl)amino]pyrrolidin-1-yl]-N-{8-fluoro-2-methylimidazo[1,2-a]pyridin-6-yl}-2-methylindazole-7-carboxamide]
pIC50 [1]: 5.00 to 6.00 | AC50 [1]: 1000 to 10000 nM | AC50 [2]: 100 to 1000 nM | pIC50 [2]: > 7.00

Cc1cn2cc(NC(=O)c3ccc(N4CC[C@@H](NC(C)C)C4)c4cn(C)nc34)cc(F)c2n1 [Compound 524, N-{8-fluoro-2-methylimidazo[1,2-a]pyridin-6-yl}-4-[(3R)-3-(isopropylamino)pyrrolidin-1-yl]-2-methylindazole-7-carboxamide]
pIC50 [1]: < 5.00 | AC50 [1]: > 10000 nM | AC50 [2]: < 100 nM | pIC50 [2]: > 7.00

CCn1cc2c(N3CCC(C)(NC4CC4)CC3)ccc(C(=O)Nc3cc(F)c4nc(C)cn4c3)c2n1 [Compound 525, 4-[4-(cyclopropylamino)-4-methylpiperidin-1-yl]-2-ethyl-N-{8-fluoro-2-methylimidazo[1,2-a]pyridin-6-yl}indazole-7-carboxamide]
pIC50 [1]: 6.00 to 7.00 | AC50 [1]: 100 to 1000 nM | AC50 [2]: < 100 nM | pIC50 [2]: > 7.00
